One compound from US20040109897A1, “Free flowing solid antimicrobial composition” (priority 2002, published 2004) can be followed below.

The nature of data set [1]: Free flow preservation (caking) of OPA formulations on exposure to temperature and humidity. The settings on record: for Caking tendency: 0 wt. % of anti-caking agent; for Time to caking: untreated. In kind it is physicochemical. From the text:
Samples of OPA containing 0.01-0.1% water were ground and mixed with various additives at levels of 0.2% to 5%. The samples were mixed on high-speed rollers for one hour followed by exposure to various temperatures and levels of humidity. The samples were examined at various time intervals for flow properties. Complete caking was defined as all sample stuck together in one solid block. For ease of interpretation and comparison, the following notation was used: 1) Formulations that caked in under two weeks were assigned one star (*); 2). Formulations that caked in two to four weeks were assigned two stars; 3) Formulations that caked in four to eight weeks were assigned three stars; 4) Formulations stable (flowable) over eight weeks were assigned four stars.

Data set [2] can be described thus: Flowability of OPA after one hour on high-speed rollers. The format is physicochemical. The settings on record: granular OPA in capped 100 ml jar, no additive. On the procedure:
Ortho-phthalic aldehyde (13.04 g, granular) was placed in a 100 ml jar. The jar was tightly capped and placed on high-speed rollers for one hour. […] The lid was removed and the sample was placed in a humidity oven set at 40° C. and 90% RH (relative humidity). After 4 hours of exposure the sample had no flow.
Ortho-phthalic aldehyde (10.04 g, granular) was placed in a 100 ml jar. The jar was tightly capped and placed on high-speed rollers for one hour. […] The lid was removed and the sample was placed in a humidity oven set at 30° C. and 90% RH (relative humidity).
Ortho-phthalic addehyde (12.04 g, granular) was placed in a 100 ml jar. The jar was tightly capped and placed on high-speed rollers for one hour. […] The lid was removed and the sample was placed in a humidity oven set at 40° C. and 70% RH (relative humidity).

In the case of `O=Cc1ccccc1C=O` [Control, ortho-phthalic aldehyde], the Caking tendency entry is listed as “* (Formulations that caked in under two weeks were assigned one star (*))” in data set [1] (22.5° C. and 65% RH); “* (Formulations that caked in under two weeks were assigned one star (*))” in data set [1] (30° C. and 90% RH); “* (Formulations that caked in under two weeks were assigned one star (*))” in data set [1] (40° C. and 70% RH); “* (Formulations that caked in under two weeks were assigned one star (*))” in data set [1] (40° C. and 90% RH). Also, the Time to caking result is “one day” in data set [1] (30° C. and 90% RH); “half a day” in data set [1] (40° C. and 90% RH). For the same compound, the Flow after exposure entry in data set [1] (4 hours at 40° C. and 70% RH) is given as “no free flow”; in data set [1] (4 hours at 40° C. and 90% RH) it was “no flow”; in data set [1] (24 hours at 30° C. and 90% RH) it was “no free flow”. In addition, in data set [2], the “Flowability after one hour on high-speed rollers” value is “very poor flowability”.
